The source of these data is the supplement of paper PMC10307832.

Holding throughout (assay): relative viability (nuclei count vs DMSO), 5 days (fraction); higher = more cells survive
Compound in test [1]: COc1cc2nccc(Oc3ccc(NC(=O)C4(C(=O)Nc5ccc(F)cc5)CC4)cc3)c2cc1OC [Cabozantinib] + Nc1ncn([C@H]2C[C@H](O)[C@@H](CO)O2)c(=O)n1 [Decitabine] (partner 2 µM)
The method in brief: (§1)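 Values are medians from duplicate plates. Each reflects relative viability, defined as the nuclei count of treated wells over that of vehicle wells. Lung cancer cell lines in 1536-well plates were pin-tool dosed one day after seeding with one drug alone or with a fixed anchor-drug dose plus five library-drug doses (not always all listed) in √10 steps, then fixed, stained and imaged at 4× after 5 days.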

Compound in test [2]: C1=CC(=CC=C1NC(=S)NNC2=C(C=C(C=C2[N+](=O)[O-])C(F)(F)F)[N+](=O)[O-])F [Kobe2602] + CC(=O)c1c(C)c2cnc(Nc3ccc(N4CCNCC4)cn3)nc2n(C2CCCC2)c1=O [Palbociclib] (partner 0.5 µM)
The method in brief: as §1

Compound in test [3]: O[C@@H](COc1cccc2ncccc12)CN1CCN([C@@H]2c3ccccc3[C@@H]3[C@H](c4ccccc42)C3(F)F)CC1 [Zosuquidar] + CS(=O)(=O)N1CCN(Cc2cc3nc(-c4cccc5[nH]ncc45)nc(N4CCOCC4)c3s2)CC1 [Pictilisib] (partner 1 µM)
The method in brief:
as §1

Compound in test [4]: O[C@@H](COc1cccc2ncccc12)CN1CCN([C@@H]2c3ccccc3[C@@H]3[C@H](c4ccccc42)C3(F)F)CC1 [Zosuquidar] + O=C(CCCCCCC(=O)Nc1ccccc1)NO [Vorinostat] (partner 1 µM)
The method in brief: as §1

With UMC-11, the relative viability was 0.654 in test [1] (first compound 0.02 µM); 0.597 in test [1] (first compound 0.06325 µM); 0.577 in test [1] (first compound 0.2 µM); 0.615 in test [1] (first compound 0.6325 µM); 0.554 in test [1] (first compound 2 µM); 0.356 in test [2] (first compound 0.2 µM). The relative viability in test [2] (first compound 0.6325 µM) was found to be 0.331; in test [2] (first compound 2 µM) it was 0.347; in test [2] (first compound 6.325 µM) it was 0.343; in test [2] (first compound 20 µM) it was 0.345; in test [3] (first compound 0.01 µM) it was 0.663; in test [3] (first compound 0.03162 µM) it was 0.92. In addition, the relative viability in test [3] (first compound 0.1 µM) worked out at 0.707; in test [3] (first compound 0.3162 µM) it was 0.881; in test [3] (first compound 1 µM) it was 0.777; in test [4] (first compound 0.01 µM) it was 0.381; in test [4] (first compound 0.03162 µM) it was 0.483; in test [4] (first compound 0.1 µM), 0.505. For the same cell line, the relative viability in test [4] (first compound 0.3162 µM) is 0.432; in test [4] (first compound 1 µM), 0.387.
